The viability is a read-out of living cells in per cent, often relative to untreated cells.

This note sets out measurements from publication PMC12040169 (PLOS Biology, 2025).

The data set can be described thus: in vitro. To be noted: human, hela cells, % viability.

On to `NC(=O)CCCN1CC[C@H]2c3c(cccc3C(N)=O)CC[C@H]21` [CBK007883], for which the viability at 28.5 h, 10 µM amounted to 93.3%.
In the case of `COCCN(CCOC)Cc1c(O)ccc2c3c(c(=O)oc12)CCC3` [CBK263733], the viability at 28.5 h, 10 µM is 75.4%.
Consider `CCOC(=O)CN1CCC(Oc2cncc(Oc3ccc(OC)c(OC)c3)n2)C1` (stereo not shown) [CBK084405], for which the viability at 28.5 h, 10 µM worked out at 91.3%.
The same measure, in the same setting: next, `CCCS(=O)(=O)Nc1nccnc1N1CCN(c2ccc3c(c2)OCO3)CC1` [CBK048824]: 93.6%.
Still for that read-out and setting: next, `O=S(=O)(Nc1nn(Cc2ccc(C(F)(F)F)cc2)c2ccccc12)c1cccc2nsnc12` [CBK048086]: 94.8%.
Consider `Cc1ccc(-c2nc3ncc(C#N)c(N)n3n2)cc1` [CBK288153], for which the viability at 28.5 h, 10 µM is 106%.
`CNCCc1nc(-c2cccs2)c2ccccn12` [CBK035905]: the viability at 28.5 h, 10 µM came out at 94.5%.
With `CCNC(=O)c1cn(Cc2ccccc2)nn1` [CBK073904], the viability at 28.5 h, 10 µM is 97.9%.
For the compound `COCC1CCN(C(=O)Nc2ccc(F)c(N3CCCNC3=O)c2)C1` (stereo not shown) [CBK305487], the viability at 28.5 h, 10 µM turned out to be 100%.
As to `O=C(NC1CCC1)c1cn2cc(-c3cccs3)n(CC3CC3)c(=O)c2n1` [CBK306863], the viability at 28.5 h, 10 µM amounted to 82.9%.
As for `O=C(O)CCCN1C(=O)C(O)=C(C(=O)c2ccccc2)C1c1ccccc1` (stereo not shown) [CBK262924], the viability at 28.5 h, 10 µM was determined as 93.3%.
Take `Nc1nc(Cn2nc(-c3ccc(F)cc3)oc2=O)nc(Nc2ccc(F)cc2)n1` [CBK296742]: the viability at 28.5 h, 10 µM amounted to 91.6%.
As for `CN(C)C(=O)c1cc(-c2cccc(N(C)C)c2)cnc1NCC1CC1` [CBK076333], the viability at 28.5 h, 10 µM is 85.1%.
As to `O=C(Nc1nccs1)c1ncn[nH]1` [CBK028821], the viability at 28.5 h, 10 µM was 102%.
For the compound `Cc1nc2ccc(NC(=O)Nc3ccnc4cccnc34)cc2o1` [CBK085498], the viability at 28.5 h, 10 µM stood at 90%.
Turning to `Cc1nonc1NC(=O)CN1CCCCC1` [CBK261839], the viability at 28.5 h, 10 µM was found to be 110%.
For the compound `CNC(=O)CN1C(=O)CC2(C1=O)C(=O)N(CCOC)c1ccc(C)cc12` (stereo not shown) [CBK075401], the viability at 28.5 h, 10 µM came out at 97.1%.
Turning to `CC(NC1=NC(C)(C)Cc2ccccc21)C(=O)O` (stereo not shown) [CBK262575], the viability at 28.5 h, 10 µM stood at 89%.
As to `Cc1nnc(S)n1CC(=O)n1c2c(c3ccccc31)CCCC2` [CBK266244], the viability at 28.5 h, 10 µM was 106%.
On the same count and under the same terms, next, `COc1ccc(C2(C(=O)NCCc3ccc(O)cc3)CC2)cc1` [CBK149833]: 101%.
Take `COc1cccc2c3c([nH]c12)C1(CCN(CCc2scnc2C)CC1)NCC3` [CBK040058]: the viability at 28.5 h, 10 µM turned out to be 89%.
Take `O=C(Cc1c[nH]cn1)Nc1cccc2cc[nH]c12` [CBK160097]: the viability at 28.5 h, 10 µM was 86.2%.
Still for that read-out and setting: next, `CC(=O)N1CCN([C@H]2[C@@H]3OC[C@@H](O3)[C@@H](NC(=O)NC3CCCCC3)[C@@H]2O)CC1` [CBK288810]: 101%; `COc1ccc(S(=O)(=O)NCCNC(=O)c2ccc(-c3cccc(Cl)c3Cl)nc2NCc2cccnc2)cc1` [CBK076436]: 116%; `O=S1(=O)CCN(Cc2cn(-c3ccc(-c4ccccc4)cc3)nn2)CC1` [CBK113105]: 95.4%.
The same measure, in the same setting: next, `O=C1N(c2ccc(Cl)cc2)Cc2nc(=O)[nH]n21` [CBK287899]: 91.6%; `CCCc1cc(C(=O)NC2(CN3CCCC3)CCCCC2)[nH]n1` [CBK282464]: 98.1%; `O=C(NCCc1cccs1)Nc1ccc2c(c1)C(F)(F)OC(F)(F)O2` [CBK045255]: 98.2%.
In the case of `COc1ccc(C)cc1NS(=O)(=O)c1cc(I)c2occc2c1` [CBK078531], the viability at 28.5 h, 10 µM was 72.6%.
For the compound `CCOc1cc(N2CCOCC2)c(OCC)cc1NC(=O)CSc1ccccc1C(=O)O` [CBK296107], the viability at 28.5 h, 10 µM came out at 97.1%.
On the same count and under the same terms, next, `CC(C)(CN1CCOCC1)NC(=O)c1cnc2cc(C(F)(F)F)ccc2c1O` [CBK107429]: 102%; `Cc1ccc(-c2nnc(-c3cccc(NC(=O)CSCc4ccc(Cl)cc4)c3)o2)cc1` [CBK266789]: 92.3%; `O=C(O)CNS(=O)(=O)c1ccc(-c2ccccc2)cc1` [CBK034457]: 98.9%.
Take `COC(=O)c1ccc(C2N(Cc3ccccc3)CCN2Cc2ccccc2)cc1` [CBK265201]: the viability at 28.5 h, 10 µM worked out at 87.3%.
Consider `O=C(CN1CCOCC1)c1ccc(O)o1` [CBK019286], for which the viability at 28.5 h, 10 µM was 95.4%.
Still for that read-out and setting: next, `O=C(CN1CCC(C(O)C(=O)NC2CC2)CC1)Nc1cc(Cl)ccc1F` (stereo not shown) [CBK305477]: 93.4%.
Consider `O=C(c1cccnc1)N1CCC(c2cc3ccccc3cn2)CC1` [CBK284891], for which the viability at 28.5 h, 10 µM came to 101%.
On to `COc1ccc(CCC(=O)Nc2cccc(-c3ccc(OC4CCNCC4)cc3)c2)cc1OC` [CBK131925T], for which the viability at 28.5 h, 10 µM was determined as 100%.
On the same count and under the same terms, next, `COc1ccc([C@H]2CN(C(=O)c3ccccc3)[C@@H]3CCN(Cc4ccsc4)C[C@H]23)cc1` [CBK285585]: 103%.
For the compound `O=C1Nc2ccccc2S(=O)(=O)N2CCCC12` (stereo not shown) [CBK282864], the viability at 28.5 h, 10 µM was determined as 112%.
Same read-out and setting: next, `CC(C)(C)c1ccc(S(=O)(=O)N2CCCC[C@H]2COC(=O)COCC(=O)O)cc1` [CBK200064]: 96.6%; `Cc1cc(O)n2nc(CC(=O)NCCCn3ccnc3C(C)C)nc2n1` [CBK306876]: 91.5%.
On the same count and under the same terms, next, `COc1ccc2c(c1)c(C)c(C(=O)N1CCCCC1CN(C)C)n2C` (stereo not shown) [CBK282190]: 90.1%.
Turning to `CCC(=O)c1cc(F)c(N2CCN(C(=O)c3cccs3)CC2)cc1C` [CBK033892], the viability at 28.5 h, 10 µM is 104%.
Consider `CC(C)C(=O)Nc1cc2ccccc2c(-c2cccc(C(F)(F)F)c2)n1` [CBK085738], for which the viability at 28.5 h, 10 µM is 95.6%.
Take `Cc1nc(CC(=O)NC(Cc2ccsc2)c2nccs2)cs1` (stereo not shown) [CBK282823]: the viability at 28.5 h, 10 µM was 87.5%.
Take `CC(=O)N1CCC2(CC1)OCc1cc(-c3ccc(C)o3)ccc1O2` [CBK060889]: for the setting “bulk resorufin, single well”, the viability at 28.5 h, 10 µM was found to be 87.1%.
Regarding `Cc1nnc(N2C(=O)c3oc4ccc(Cl)cc4c(=O)c3C2c2cccnc2)s1` (stereo not shown) [CBK267010], the viability at 28.5 h, 10 µM was determined as 105%.
For `CCCCc1ccc(Nc2ncnc3nc[nH]c23)cc1` [CBK288006], the viability at 28.5 h, 10 µM was 96.3%.
As to `Cc1ccc(-c2nnc([C@H]3CCN(Cc4ccc(CO)o4)C3)o2)cc1` [CBK289399], the viability at 28.5 h, 10 µM amounted to 90%.
For the compound `COCc1cc(C)nc2sc(C(N)=O)c(N)c12` [CBK018149], the viability at 28.5 h, 10 µM worked out at 93%.
On to `CC(c1ncc(Br)cn1)N1CCN(Cc2noc(C(C)(C)C)n2)CC1` (stereo not shown) [CBK306168], for which the viability at 28.5 h, 10 µM stood at 87.4%.
Take `CN1CCN(c2cc3c(cc2F)c(=O)c(C(=O)O)cn3-c2ccc(F)cc2)CC1` [CBK287138]: the viability at 28.5 h, 10 µM was 78.4%.
Take `CN1CCCC(C(O)c2ccccc2)C1` (stereo not shown) [CBK012472]: the viability at 28.5 h, 10 µM amounted to 96.9%.
On to `O=C(CNc1n[nH]c(=O)[nH]c1=O)N/N=C/c1ccc(C(=O)O)cc1` [CBK263529], for which the viability at 28.5 h, 10 µM came out at 96.2%.
Regarding `C/C(=N/NC(=O)CSc1nc2ccccc2n1C)c1cccc([N+](=O)[O-])c1` [CBK263179], the viability at 28.5 h, 10 µM was found to be 99.3%.
In the case of `C/C(=N\O)c1oc2ccccc2c(=O)c1O` [CBK010642], the viability at 28.5 h, 10 µM turned out to be 98.6%.
For `S=C(NCCc1ccccc1)NCCN1CCOCC1` [CBK264929], the viability at 28.5 h, 10 µM amounted to 87.4%.
Take `O=C1C(=CNCCc2c[nH]c3ccccc23)C(=O)N(c2ccccc2)C(=S)N1c1ccccc1` [CBK265557]: the viability at 28.5 h, 10 µM (bulk resorufin, single well) came to 98.5%.
`CCOC(=O)C1CCCN(C(=O)Cn2c(C)nc3ccccc3c2=O)C1` (stereo not shown) [CBK306150]: the viability at 28.5 h, 10 µM amounted to 77.9%.
`CC1(C)CC(NC(=O)C2CCCN(S(C)(=O)=O)C2)c2ccccc2O1` (stereo not shown) [CBK304365]: the viability at 28.5 h, 10 µM was determined as 98.2%.
For the compound `CC(C)(CN)CN(Cc1c[nH]c(-c2ccccc2)n1)C(=O)Nc1ccc(C(C)(C)C)cc1` [CBK002462C], the viability at 28.5 h, 10 µM worked out at 87.5%.
Still for that read-out and setting: next, `CC1(C)CC(=O)c2sc(NC(=O)c3ccc4ncccc4c3)nc2C1` [CBK144105]: 92.2%; `CCCc1[nH]nc(O)c1Cc1ccc(F)cc1F` [CBK075015]: 85.7%.
In the case of `C[C@H]1CN2C[C@H](O)CC2CN1Cc1cn(C)c2ccc(F)cc12` (stereo partly shown) [CBK285428], the viability at 28.5 h, 10 µM turned out to be 97.6%.
With `O=C(O)CCc1nc2nc(-c3ccco3)cc(C(F)(F)F)n2n1` [CBK286889], the viability at 28.5 h, 10 µM stood at 86%.
With `CC(C)C(NC(=O)N1c2ccccc2NC(=O)C1C(C)C)C(=O)O` (stereo not shown) [CBK286670], the viability at 28.5 h, 10 µM was found to be 100%.
As to `COc1cccc(-c2cnc(N)c(NCc3ccco3)n2)c1` [CBK063684], the viability at 28.5 h, 10 µM stood at 99.6%.
As for `CCCc1ccc(C(C)NC(=O)C2CC2C)cc1` (stereo not shown) [CBK057847], the viability at 28.5 h, 10 µM was found to be 82.4%.
On to `CC(C)c1nn(C)c(N(C)C)c1CNCCc1cnn(C)c1` [CBK305135], for which the viability at 28.5 h, 10 µM came to 108%.
`Cc1cc(=O)oc2cc(OCC(=O)Nc3ccc(S(=O)(=O)O)cc3)ccc12` [CBK301204N]: the viability at 28.5 h, 10 µM is 89.6%.
Same read-out and setting: next, `N=C(N)NC(=N)NCCc1c[nH]c2ccccc12` [CBK267706G]: 89.3%; `O=c1cc(CN2CCc3ccccc3C2)[nH]c(=O)[nH]1` [CBK126401]: 94%; `CN1CCN(/N=C/c2c(C(F)(F)F)[nH]n(-c3nc4ccccc4s3)c2=O)CC1` [CBK263163]: 92.4%.
The same measure, in the same setting: next, `Cc1cc(C(=O)N2CCC(C(=O)c3ccnn3C)CC2)sc1C` [CBK284428]: 89.3%.
Take `O=C(O)CCC(C(=O)O)N1C(=O)c2cc(Cl)c(Cl)cc2C1=O` (stereo not shown) [CBK264156]: the viability at 28.5 h, 10 µM came out at 113%.
In the case of `Cc1cc(Cl)ccc1OCC(=O)NC(=S)Nc1cccc(-c2nc3ccccc3s2)c1` [CBK264802], the viability at 28.5 h, 10 µM was found to be 105%.
Turning to `CC1=CC(C)C(C(=O)O)C(C(=O)Nc2ccccc2)C1` (stereo not shown) [CBK286851], the viability at 28.5 h, 10 µM came out at 90.4%.
Take `Cc1cc(C)cc(N(C(C)C(=O)N2CCN(Cc3ccc4c(c3)OCO4)CC2)S(C)(=O)=O)c1` (stereo not shown) [CBK269060]: the viability at 28.5 h, 10 µM is 90.3%.
